Experiments:
Homo sapiens = organism: Homo sapiens; test: Binding affinity to human LDL assessed per mg of protein
HUVEC = test: Antiinflammatory activity in HUVEC assessed as reduction in TNF-alpha induced ICAM1 protein expression at 5 uM incubated for 5 hrs followed by TNFalpha-induction and measured after 16 hrs by flow cytometric analysis relative to control; assay type: functional; details: Homo sapiens
[1] = Drug concentration in rat brain at 2 umol/kg, po after 2.5 hrs; assay type: ADME, organism-based; details: read-out: Ct
B16-F10 [2] = test: Antitumor activity against […] cells xenografted in C57BL/6 mouse assessed as reduction in tumor volume at 3.2 mg/kg, po measured after 14 days post transfection relative to control; assay type: functional; details: 336 h
B16-F10 [3] = test: Antitumor activity against […] cells xenografted in C57BL/6 mouse assessed as reduction in tumor weight at 3.2 mg/kg, po measured after 14 days post transfection relative to control; assay type: functional; details: 336 h
B16-F10 [4] = test: Antitumor activity against […] cells xenografted in C57BL/6 mouse assessed as reduction in CXCL1 level at 3.2 mg/kg, po measured after 14 days post transfection relative to control; assay type: functional; details: 336 h
Caco-2 = test: Antiproliferative activity against human Caco2 cells assessed as reduction in cell viability after 48 hrs by MTT assay; assay type: functional, cell-based; details: Caco-2, 48 h
[5] = Plasma concentration in rat at 2 uM/kg, po after 2.5 hrs; assay type: ADME, organism-based; details: in vivo
[6] = Drug concentration in rat brain cerebellum at […], po after 1 hr; assay type: ADME, organism-based; details: read-out: Ct
[7] = Drug concentration in rat brain cortex at […], po after 1 hr; assay type: ADME, organism-based; details: read-out: Ct

O=C(O)C1=C/C(=C/C=[N+]2/CCC[C@H]2C(=O)[O-])C[C@@H](C(=O)O)N1
Bmax (Homo sapiens): 0.52 nmol
inhibition at 5 µM (HUVEC): -15%
concentration at 2.5 h [1]: 20 ng/g
inhibition in vivo at 3.2 mg/kg (B16-F10 [2]): 86%
inhibition in vivo at 3.2 mg/kg (B16-F10 [3]): 83%
inhibition in vivo at 3.2 mg/kg (B16-F10 [4]): 42%
IC50 (Caco-2): 115 µM
Cp [5]: 200 nM
concentration at 1 h [6]: 90 ng/g
concentration at 1 h [7]: 50 ng/g
